Measurements as given in patent US20230263787A1, “ENHANCED MITOCHONDRIAL RESPONSE WITH THIOZOLIDINEDIONE, PIOGLITAZONE OR ROSIGLITAZONE” (priority 2020, published 2023).

Key:
DRG axons = experiment: Lysolecithin exposure of unmyelinated DRG cultures (axon damage); type: cell-based, mouse; details: 0.005 mg/ml lysolecithin for 2 hours
[1] = tested on: cerebellar slices from Shiverer mice; experiment: Mitochondrial dynamics in dysmyelinated Purkinje cell axons of Shiverer cerebellar slices exposed to lysolecithin; type: cell-based, mouse; details: chronically dysmyelinated axons
Experimental: Cerebellar slices were prepared as previously described. Briefly, wild type C57BL/6 and Shiverer mice pups were sacrificed at P10 and cerebellum was placed in ice-cold dissection medium. The sagittal slices were then sectioned into 300 µm thick slices and placed on a membrane insert. Picospritzer III (Parker, US) and a micromanipulator was used to inject mEOS2-Lentivirus (titre 7-8*10^9; aliquots stored at -80° C.) containing 0.025% of Fast-Green (FG, Sigma F7258, UK) in to the Purkinje cell body layer. […]
Live imaging of mitochondria in Purkinje cell axon was performed at DIV14, directly after removing the lysolecithin. […] Newly transported mitochondria, either appearing from the neuronal cell body to the most proximal 20 micron axonal segment or distal axonal mitochondria appearing in the 20 microns long axonal segment of the most distal photoconverted segment, were counted visually and confirmed using the kymograph. […] For each mitochondrion appearing, the direction of movement was noted, as well as the area of the mitochondrion was measured manually, using the measure function in Fiji, when it first appeared in the axon.
Kymographs of the time lapse images were generated by using the ImageJ plugin KymographClear2.0 [40]. Mitochondrial speed of movement was determined by using the Kymotoolbox ImageJ plugin [80]. […]

DRG neurons [2] = details: 17 hours
Experimental: Complex IV histochemistry was performed as described below and images were obtained using bright field microscopy. The intensity of the complex IV reactive product was assessed using FIJI and densitometry to analyse complex IV activity at a single cell level.

DRG neurons [3] = experiment: Seahorse analysis of mitochondrial respiration in DRG neurons; details: sodium azide 100 µM for 16 hours
Experimental: DRG neuronal cells were cultured on V7 Seahorse 24-well cell culture microplates (Agilent Technologies), in maintenance medium in a 5% CO2 37° C. incubator. […] Plates were incubated for 30 mins at 37° C. (without CO2), before entry into the Seahorse XFe24 Extracellular Flux Analyser (Agilent). Three measurements were taken basally, and three measurements taken after injection of each drug to either inhibit ATP-linked respiration, uncouple respiration or inhibit the respiratory chain. Mitochondrial respiration was calculated by subtracting the first OCR measurement following injection of antimycin/rotenone from the third basal OCR measurement. Normalisation of OCR to relative protein content was achieved following Sulforhodamine B (SRB) staining of all cell wells. Data for each treatment groups was averaged from between 4-5 replicate wells.

DRG-OPC co-cultures = experiment: Axon damage after lysolecithin demyelination in microfluidic chambers, drug applied to neuronal cell body chamber; type: cell-based, mouse; details: 15 µM SR-18292 added together with pioglitazone to cell body chamber
Experimental: Before adding lysolecithin to microfluidic chambers, the inventors used an Axio Observer Z1 inverted motorized microscope (Zeiss, Germany), for live imaging to identify the myelinated axonal segments (video 11, online resource). Images of the myelinated axonal segments were saved with x-y coordinates of the stage position. The effect of live imaging on the axons and myelin was determined by imaging microfluidic chamber containing both mKate2 expressing DRGs and eGFP-expressing OPC where imaged at 20x magnification (Plan-Apochromat 0.8 NA Ph 2 M27 objective, Zeiss, Germany) for 30 minutes before returning the microfluidic chambers to the incubator.
The inventors then added lysolecithin for 2 hours before live imaging the previously imaged axonal segments again, using the x-y co-ordinate of the stage position. These live images of axons, pre and post lysolecithin, allowed the assessment of the demyelination of the axonal segments (based on M1-M4-eGFP fluorescence) as well as axonal damage following acute demyelination (based on appearance of mKate2 fluorescence). […] Meanwhile, axons were classed as fragmented when the mKate2 fluorescence was disrupted and not continuous in at least one part of the axon. […] Following exposure to lysolecithin, demyelination was confirmed based on disruption or loss of M1-M4-eGFP fluorescence. […]

L-α-Lysophosphatidylcholine [lysolecithin]
damage to DRG axons in unmyelinated cultures (DRG axons): without damaging the DRG axons
axonal mitochondrial dynamics of newly transported mitochondria [1]: does not significantly impact

[N-]=[N+]=[N-] [sodium azide]
highest dose which did not impact cell viability and resulted in complex IV inhibition (DRG neurons [2]): 100 µM
cell viability (DRG neurons [3]): without compromising cell viability

Cc1ccc(CN(CC(O)COc2cccc3[nH]ccc23)C(C)(C)C)cc1 (stereo not drawn) [PGC1α inhibitor, SR-18292]
effect on the protective effect of pioglitazone on demyelinated axons (DRG-OPC co-cultures): significantly diminished
